Measurements taken from US6693107B1, “Pharmaceutical composition useful for the treatment of tinnitus and hearing loss” (priority 1999, dated 2004).
Counter-ions that a name gives are not always drawn.

Assays:
tinnitus = test: Case reports: tinnitus in patients treated with sildenafil citrate; type: in vivo, human
Text: A person suffering for several years from severe tinnitus and hearing loss in their right ear had repeatedly sought medical advice and tried many alleged therapies for their tinnitus, none of which was effective. […] Other than that they are in good health and receives no medications. Recently they were prescribed sildenafil citrate for improving their sexual performance. […] A person known to have bilateral tinnitus and hearing loss for more than 20 years. Other than hypertension, for which they are treated, they are in good health. They were prescribed sildenafil citrate, 25 mg daily, for the tinnitus.

hearing loss = test: Case report: hearing loss / audiogram in patient treated with sildenafil citrate; type: in vivo, human
Text: A person suffering for several years from severe tinnitus and hearing loss in their right ear had repeatedly sought medical advice and tried many alleged therapies for their tinnitus, none of which was effective. […] Other than that they are in good health and receives no medications. Recently they were prescribed sildenafil citrate for improving their sexual performance. […] For instance, at frequencies of 500-1000 Hz, hearing in their right ear improved from 50-55 dB to 30 dB.

[1] = patients suffering from tinnitus

| SMILES | effect on tinnitus (general statement) (tinnitus; [1]) | effect on hearing loss (general statement) (hearing loss; [1]) | effect on tinnitus (tinnitus; Example 1: person, severe tinnitus in right ear, first course of sildenafil citrate) | tinnitus status on continued treatment (tinnitus; Example 1: person, continues on sildenafil citrate) | return of the tinnitus after cessation of the medication (tinnitus; Example 1: person, intentional stop of the medication) | severity of tinnitus on rechallenge (tinnitus; Example 1: person, rechallenge 25 mg twice weekly) | effect on tinnitus (tinnitus; Example 2: person, bilateral tinnitus, 25 mg daily, starting after the 5th daily dose, persisted as long as drug taken) | audiogram (overall) (hearing loss; Example 1: after several months treatment) | hearing in right ear after treatment (audiogram) (hearing loss; Example 1: frequencies of 500-1000 Hz, after several months treatment, improved from 50-55 dB before treatment) [dB] | hearing (patient report) (hearing loss; Example 1: person, hearing loss in right ear, on continued treatment) |
| --- | --- | --- | --- | --- | --- | --- | --- | --- | --- | --- |
| CCCc1nn(C)c2c(=O)[nH]c(-c3cc(S(=O)(=O)N4CCN(C)CC4)ccc3OCC)nc12 [sildenafil] | effective in reducing tinnitus | ameliorating hearing loss | – | – | – | – | – | – | – | – |
| CCCc1nn(C)c2c(=O)[nH]c(-c3cc(S(=O)(=O)N4CCN(C)CC4)ccc3OCC)nc12 [sildenafil citrate, 1-[[3-(6,7-dihydro-1-methyl-7-oxo-3-propyl-1H-pyrazolo [4,3-d]pyrimidin-5-yl)-4-ethoxyphenyl]sulfonyl]4-methylpiperazine citrate] | – | – | amelioration of the tinnitus, which eventually nearly disappeared | practically tinnitus-free | 2-3 weeks | reduced the severity of tinnitus within a week and proceeded to almost complete disappearance of the symptom | marked reduction in their tinnitus | marked improvement | 30 | significant improvement in their hearing |
